Source: PMC3409373, “Ellagic acid, a phenolic compound, exerts anti-angiogenesis effects via VEGFR-2 signaling pathway in breast cancer” (Breast Cancer Research and Treatment, 2012)

Target: T1, VEGFR-2 (Homo sapiens, UniProt P35968)
T1 construct: gene KDR
Experiment: ELISA-based tyrosine kinase assay with VEGFR-2 (Upstate), poly-Glu-Tyr substrate, Mg2+ and ATP
Type: biochemical

T1 sequence (P35968 20-1356): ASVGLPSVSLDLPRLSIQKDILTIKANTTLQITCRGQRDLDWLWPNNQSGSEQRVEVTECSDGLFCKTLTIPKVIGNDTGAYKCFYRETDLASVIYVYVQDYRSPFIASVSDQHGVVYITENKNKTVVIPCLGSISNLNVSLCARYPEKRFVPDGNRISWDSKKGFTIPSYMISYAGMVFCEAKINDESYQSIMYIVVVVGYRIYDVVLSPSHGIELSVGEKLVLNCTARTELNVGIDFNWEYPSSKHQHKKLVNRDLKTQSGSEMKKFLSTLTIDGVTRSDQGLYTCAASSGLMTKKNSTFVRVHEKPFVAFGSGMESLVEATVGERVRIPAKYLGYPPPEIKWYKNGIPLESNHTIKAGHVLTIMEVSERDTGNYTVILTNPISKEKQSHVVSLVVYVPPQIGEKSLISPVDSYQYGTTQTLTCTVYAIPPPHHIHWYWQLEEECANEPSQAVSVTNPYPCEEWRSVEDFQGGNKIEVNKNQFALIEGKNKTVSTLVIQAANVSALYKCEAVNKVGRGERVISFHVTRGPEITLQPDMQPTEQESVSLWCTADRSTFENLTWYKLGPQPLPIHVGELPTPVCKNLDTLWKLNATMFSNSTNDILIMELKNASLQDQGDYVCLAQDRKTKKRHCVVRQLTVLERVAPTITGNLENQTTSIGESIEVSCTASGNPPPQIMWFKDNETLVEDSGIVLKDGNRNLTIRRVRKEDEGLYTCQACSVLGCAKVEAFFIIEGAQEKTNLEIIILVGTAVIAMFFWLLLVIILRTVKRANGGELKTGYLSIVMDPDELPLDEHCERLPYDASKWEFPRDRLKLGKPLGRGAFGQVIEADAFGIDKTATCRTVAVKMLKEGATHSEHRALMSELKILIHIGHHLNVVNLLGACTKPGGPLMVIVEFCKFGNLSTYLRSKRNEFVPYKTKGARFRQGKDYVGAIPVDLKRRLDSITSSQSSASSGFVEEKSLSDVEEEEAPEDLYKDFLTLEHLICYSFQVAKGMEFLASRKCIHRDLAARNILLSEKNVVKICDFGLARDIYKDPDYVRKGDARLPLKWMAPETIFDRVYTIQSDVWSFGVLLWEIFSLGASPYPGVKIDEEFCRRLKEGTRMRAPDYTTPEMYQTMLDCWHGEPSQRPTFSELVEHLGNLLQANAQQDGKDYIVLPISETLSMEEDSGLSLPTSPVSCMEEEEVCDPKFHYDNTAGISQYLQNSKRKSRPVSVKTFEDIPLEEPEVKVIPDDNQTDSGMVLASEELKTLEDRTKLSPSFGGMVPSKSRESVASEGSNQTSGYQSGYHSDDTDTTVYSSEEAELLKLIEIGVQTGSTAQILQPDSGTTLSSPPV

SMILES: O=c1oc2c(O)c(O)cc3c(=O)oc4c(O)c(O)cc1c4c23 [ellagic acid, 4,4′,5,5′6, 6′-hexahydroxydiphenic acid 2,6,2′6′-dilactone]
- IC50: ~25.8 nM
